Measurements: patent EP4711367A1, “PYRAZOLOPYRAZINE COMPOUND AND METHOD FOR PREPARING CRYSTAL FORM THEREOF” (CMS Research & Development Pte. Ltd., priority 2023, dated 2024)

How the values were obtained:
TYK2(h) = molecular target: T1, TYK2(h) (Homo sapiens, UniProt P29597); experiment: In vitro activity test of TYK2 kinase ([γ-33P]-ATP filter assay, Eurofins); type: biochemical
T1 construct: purchased Eurofins (UK)
Method: Recombinant human JAK1, JAK2, JAK3, and Tyk2 proteases, along with major instruments and reagents, were provided by Eurofins in the UK. JAK2, JAK3, and TYK2 were diluted with: 20 mM 3-(N-morpholino)propanesulfonic acid (MOPS), 1 mM EDTA, 0.01% Brij-35.5% glycerol, 0.1% β-mercaptoethanol, 1 mg/mL BSA; JAK1 was diluted with: 20 mM TRIS, 0.2 mM EDTA, 0.1% β-mercaptoethanol, 0.01% Brij-35.5% glycerol. The compound of formula (I) was prepared as a 100% DMSO solution and diluted to 50 times the final assay concentration. The test compound was subjected to a 3-fold serial dilution, with final concentrations ranging from 10 µM to 0.001 µM across 9 concentrations, and the DMSO content in the detection reaction was 2%. The working stock solution of this compound was added as the first component of the reaction to the assay wells, followed by the addition of the remaining components according to the protocol detailed below. TYK2(h) was incubated with 8 mM MOPS pH 7.0, 0.2 mM EDTA, 250 µM GGMEDIYFEFMGGKKK, 10 mM magnesium acetate, and [γ-^33P]-ATP (activity and concentration adjusted as needed). The reaction was initiated by adding the Mg/ATP mixture and incubated at room temperature for 40 minutes, then terminated by adding 0.5% phosphoric acid. […] The IC50 results were analyzed using XLFIT5 (205 formula) from IDBS, as detailed in Table 12. […]

[1] = system: IL-23-induced epidermal hyperplasia model of the mouse ear pinna; experiment: Pharmacodynamic test of psoriasis model in mice (IL-23 injected into the ear pinna); type: in vivo, C57BL/6 mouse; conditions: for Ear thickness (mm)/day: right ear
Method: Objective: The purpose of this experiment is to evaluate the preventive and therapeutic effects of the test substance on IL-23-induced psoriasis-like skin lesions in mice, which were established by intradermal injection of IL-23 into the mouse ear pinna.
Methods: After the acclimation period, 50 mice were divided into 5 groups of 10 each by Excel complete randomization, namely: vehicle (0.5% MC & 0.5% Tween 80) control group, model group, and compound of formula (I) (10, 20, 50 mg/kg) groups. Except for the vehicle control group, the remaining groups were intradermally injected with IL-23 (3 µg/10 µL/mouse/day, QD) in the right ear for 8 consecutive days (D1 to D8), while the control group animals were intradermally injected with an equal volume of normal saline solution (10 µL/mouse/day, QD) in the right ear for 8 consecutive days (D1 to D8). During the modeling period, the vehicle or test drug was orally administered twice daily (Bid) at 6-hour intervals for 8 consecutive days (D1 to D8). During the administration period, the body weight of the animals was monitored every two days. On D1, D3, D5, D7 (all before IL-23 injection), and D9, the thickness of the right ear of the mice was measured, and the appearance of the ear pinna was scored. At the end of the experiment (Day 10), the modeled ear was excised, and an ear piece was punched along the ear pinna edge using an 8 mm punch and weighed. The punched right ear piece was fixed with formalin and subjected to histopathological examination (H&E) staining.

[2] = 10 mg/kg oral gavage twice daily for 8 days, day 1
[3] = 10 mg/kg oral gavage twice daily for 8 days, day 3
[4] = 10 mg/kg oral gavage twice daily for 8 days, day 5
[5] = 10 mg/kg oral gavage twice daily for 8 days, day 7
[6] = 10 mg/kg oral gavage twice daily for 8 days, day 9
[7] = 20 mg/kg oral gavage twice daily for 8 days, day 1
[8] = 20 mg/kg oral gavage twice daily for 8 days, day 3
[9] = 20 mg/kg oral gavage twice daily for 8 days, day 5
[10] = 20 mg/kg oral gavage twice daily for 8 days, day 7
[11] = 20 mg/kg oral gavage twice daily for 8 days, day 9
[12] = 50 mg/kg oral gavage twice daily for 8 days, day 1
[13] = 50 mg/kg oral gavage twice daily for 8 days, day 3
[14] = 50 mg/kg oral gavage twice daily for 8 days, day 5
[15] = 50 mg/kg oral gavage twice daily for 8 days, day 7
[16] = 50 mg/kg oral gavage twice daily for 8 days, day 9
[17] = 10, 20, 50 mg/kg oral gavage twice daily for 8 consecutive days

T1 sequence (P29597 whole entry): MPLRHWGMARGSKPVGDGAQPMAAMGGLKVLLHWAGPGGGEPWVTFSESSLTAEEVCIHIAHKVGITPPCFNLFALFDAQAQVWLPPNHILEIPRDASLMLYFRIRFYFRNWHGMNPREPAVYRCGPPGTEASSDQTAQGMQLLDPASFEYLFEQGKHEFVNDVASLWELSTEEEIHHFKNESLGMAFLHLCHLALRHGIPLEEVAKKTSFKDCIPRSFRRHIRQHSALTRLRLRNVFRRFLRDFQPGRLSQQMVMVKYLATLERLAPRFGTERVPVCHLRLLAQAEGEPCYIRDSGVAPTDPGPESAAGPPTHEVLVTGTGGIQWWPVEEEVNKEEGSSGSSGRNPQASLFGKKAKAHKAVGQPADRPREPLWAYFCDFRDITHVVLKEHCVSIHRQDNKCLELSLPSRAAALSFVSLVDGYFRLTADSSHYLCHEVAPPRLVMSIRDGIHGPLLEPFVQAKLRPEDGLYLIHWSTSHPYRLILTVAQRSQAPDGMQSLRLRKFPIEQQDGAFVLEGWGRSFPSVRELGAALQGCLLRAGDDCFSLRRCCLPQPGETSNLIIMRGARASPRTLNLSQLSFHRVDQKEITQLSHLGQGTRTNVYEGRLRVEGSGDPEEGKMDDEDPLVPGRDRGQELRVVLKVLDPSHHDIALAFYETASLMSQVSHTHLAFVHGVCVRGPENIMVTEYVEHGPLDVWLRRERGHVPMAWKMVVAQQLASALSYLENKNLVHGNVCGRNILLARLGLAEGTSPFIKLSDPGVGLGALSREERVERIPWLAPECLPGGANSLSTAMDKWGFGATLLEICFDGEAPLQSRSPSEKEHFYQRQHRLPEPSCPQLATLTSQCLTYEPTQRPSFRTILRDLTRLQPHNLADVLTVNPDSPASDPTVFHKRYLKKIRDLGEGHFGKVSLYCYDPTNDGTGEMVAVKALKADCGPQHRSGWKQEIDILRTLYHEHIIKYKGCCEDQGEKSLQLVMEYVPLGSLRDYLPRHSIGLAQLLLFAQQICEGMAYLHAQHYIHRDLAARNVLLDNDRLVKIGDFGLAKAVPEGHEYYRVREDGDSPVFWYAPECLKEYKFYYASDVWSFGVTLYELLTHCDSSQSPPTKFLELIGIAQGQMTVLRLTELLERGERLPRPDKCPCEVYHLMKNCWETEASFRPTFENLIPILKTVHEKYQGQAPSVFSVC

## Cn1cc(-c2cn3nccc3c(-c3cnn([C@]4(CC#N)CC5(C[C@H](C#N)C5)C4)c3)n2)cn1 (stereo partly shown) [Compound of formula (I)]
TYK2(h)
  IC50: 0.9 nM
TYK2(h); in vitro activity tests for the four kinase subtypes JAK1, JAK2, JAK3, and TYK2
  selective inhibition against TYK2 and/or JAK1 and/or JAK2: good selective inhibition
[1]; [2]
  Body weight (g)/day: 19.77 ± 0.59 g
  Ear comprehensive score/day: 0.00 ± 0.00
[1]; [3]
  Body weight (g)/day: 19.69 ± 0.57 g
  Ear comprehensive score/day: 0.00 ± 0.00
[1]; [4]
  Body weight (g)/day: 20.02 ± 0.77 g
  Ear comprehensive score/day: 0.60 ± 0.52
[1]; [5]
  Body weight (g)/day: 19.69 ± 0.63 g
  Ear comprehensive score/day: 1.70 ± 1.06
[1]; [6]
  Body weight (g)/day: 20.04 ± 0.72 g
  Ear comprehensive score/day: 2.60 ± 1.43
  Ear thickness (mm)/day: 0.430 ± 0.048 mm
[1]; [7]
  Body weight (g)/day: 19.77 ± 0.54 g
  Ear comprehensive score/day: 0.00 ± 0.00
  Ear thickness (mm)/day: 0.190 ± 0.009 mm
[1]; [8]
  Body weight (g)/day: 19.85 ± 0.78 g
  Ear comprehensive score/day: 0.00 ± 0.00
[1]; [9]
  Body weight (g)/day: 20.13 ± 0.78 g
  Ear comprehensive score/day: 0.60 ± 0.70
[1]; [10]
  Body weight (g)/day: 19.80 ± 0.92 g
  Ear comprehensive score/day: 1.40 ± 0.52
  Ear thickness (mm)/day: 0.350 ± 0.025 mm
[1]; [11]
  Body weight (g)/day: 20.27 ± 0.90 g
  Ear comprehensive score/day: 1.50 ± 0.71
[1]; [12]
  Body weight (g)/day: 19.78 ± 0.53 g
  Ear comprehensive score/day: 0.00 ± 0.00
[1]; [13]
  Body weight (g)/day: 19.85 ± 0.68 g
  Ear comprehensive score/day: 0.00 ± 0.00
[1]; [14]
  Body weight (g)/day: 20.41 ± 0.70 g
  Ear comprehensive score/day: 0.10 ± 0.32
[1]; [15]
  Body weight (g)/day: 20.15 ± 0.56 g
  Ear comprehensive score/day: 1.40 ± 0.70
[1]; [16]
  Body weight (g)/day: 20.28 ± 0.76 g
  Ear comprehensive score/day: 1.00 ± 0.47
[1]; [17]
  effect on the body weight of the animals (in words): no significant effect
  effect on the weight of the modeled ear (in words): significantly reduce
[1]; 10, 20, 50 mg/kg oral gavage twice daily for 8 consecutive days, from D5 to D9
  effect on the total score of the modeled ear (in words): significantly reduce
[1]; dose of 50 mg/kg, as early as D3
  effect on the thickness of the modeled ear (in words): significantly reduces
[1]; doses of 10 and 20 mg/kg, starting from day 5
  effect on the thickness of the modeled ear (in words): significantly reduces
